Key:
[1] = target: T1, CDK9/CycT1 (Homo sapiens, UniProt P50750); experiment: CDK9/CycT1 kinase assay (Method 1a, TR-FRET); type: biochemical; settings: for IC50: Method 1a, 10 μM ATP; for Selectivity CDK9 over CDK2: IC50 (CDK2)/IC50 (CDK9): ratio of Method 2 to Method 1a values
T1 construct: Recombinant full-length His-tagged human CDK9 and CycT1; His; purchased Invitrogen PV4131; host or cells: insect cells
Description: 1a. CDK9/CyeT1 Kinase Assay:
CDK9/CycT1-inhibitory activity of compounds of the present invention was quantified employing the CDK9/CycT1 TR-FRET assay as described in the following paragraphs:
Recombinant full-length His-tagged human CDK9 and CycT1, expressed in insect cells and purified by Ni-NTA affinity chromatography, were purchased from Invitrogen (Cat. No PV4131). As substrate for the kinase reaction biotinylated peptide biotin-Ttds-YISPLKSPYKISEG (C-terminus in amid form) was used which can be purchased e.g. form the company JERINI Peptide Technologies (Berlin, Germany). For the assay 50 nl of a 100 fold concentrated solution of the test compound in DMSO was pipetted into a black low volume 384 well microtiter plate (Greiner Bio-One, Frickenhausen, Germany), 2 μl of a solution of CDK9/CycT1 in aqueous assay buffer [50 mM Tris/HCl pH 8.0, 10 mM MgCl2, 1.0 mM dithiothreitol, 0.1 mM sodium ortho-vanadate, 0.01% (v/v) Nonidet-P40 (Sigma)] were added and the mixture was incubated for 15 min at 22° C. to allow pre-binding of the test compounds to the enzyme before the start of the kinase reaction. Then the kinase reaction was started by the addition of 3 μl of a solution of adenosine-tri-phosphate (ATP, 16.7 μM=>final conc. in the 5 μl assay volume is 10 μM) and substrate (1.67 μM=>final conc. in the 5 μl assay volume is 1 μM) in assay buffer and the resulting mixture was incubated for a reaction time of 25 min at 22° C. The concentration of CDK9/CycT1 was adjusted depending of the activity of the enzyme lot and was chosen appropriate to have the assay in the linear range, typical concentrations were in the range of 1 μg/mL. The reaction was stopped by the addition of 5 μl of a solution of TR-FRET detection reagents (0.2 μM streptavidine-XL665 [Cisbio Bioassays, Codolet, France] and 1 nM anti-RB(pSer807/pSer811)-antibody from BD Pharmingen [#558389] and 1.2 nM LANCE EU-W1024 labeled anti-mouse IgG antibody [Perkin-Elmer, product no. AD0077]) in an aqueous EDTA-solution (100 mM EDTA, 0.2% (w/v) bovine serum albumin in 100 mM HEPES/NaOH pH 7.0).
The resulting mixture was incubated 1 h at 22° C. to allow the formation of complex between the phosphorylated biotinylated peptide and the detection reagents. Subsequently the amount of phosphorylated substrate was evaluated by measurement of the resonance energy transfer from the Eu-chelate to the streptavidine-XL. Therefore, the fluorescence emissions at 620 nm and 665 nm after excitation at 350 nm was measured in a HTRF reader, e.g. a Rubystar (BMG Labtechnologies, Offenburg, Germany) or a Viewlux (Perkin-Elmer). The ratio of the emissions at 665 nm and at […] was taken as the measure for the amount of phosphorylated substrate. The data were normalised (enzyme reaction without inhibitor=0% inhibition, all other assay components but no enzyme=100% inhibition).

[2] = system: DU 145, hormone-independent human prostate carcinoma cells; experiment: Proliferation assay, DU145 (crystal violet); type: cell-based; settings: DU-145, 96 h, DU145, 4 days, read-out: Inhibition of DU145 cell proliferation
Protocol: (§1) Cultivated tumour cells (HeLa, human cervical tumour cells, ATCC CCL-2; NCI-H460, human non-small cell lung carcinoma cells, ATCC HTB-177; A2780, human ovarian carcinoma cells, ECACC #93112519; DU 145, hormone-independent human prostate carcinoma cells, ATCC HTB-81; HeLa-MaTu-ADR, multidrug-resistant human cervical carcinoma cells, EPO-GmbH Berlin; Caco-2, human colorectal carcinoma cells, ATCC HTB-37; B16F10, mouse melanoma cells, ATCC CRL-6475) were plated at a density of 5,000 cells/well (DU145, HeLa-MaTu-ADR), 3,000 cells/well (NCI-H460, HeLa), 2,500 cells/well (A2780), 1,500 cells/well (Caco-2), or 1,000 cells/well (B16F10) in a 96-well multititer plate in 200 μL of their respective growth medium supplemented 10% fetal calf serum. After 24 hours, the cells of one plate (zero-point plate) were stained with crystal violet (see below), while the medium of the other plates was replaced by fresh culture medium (200 μl), to which the test substances were added in various concentrations (0 μM, as well as in the range of 0.001-10 μM; the final concentration of the solvent dimethyl sulfoxide was 0.5%). The cells were incubated for 4 days in the presence of test substances. Cell proliferation was determined by staining the cells with crystal violet: the cells were fixed by adding 20 μl/measuring point of an 11% glutaric aldehyde solution for 15 minutes at room temperature. After three washing cycles of the fixed cells with water, the plates were dried at room temperature. The cells were stained by adding 100 μl/measuring point of a 0.1% crystal violet solution (pH 3.0). After three washing cycles of the stained cells with water, the plates were dried at room temperature. The dye was dissolved by adding 100 μl/measuring point of a 10% acetic acid solution. The extinction was determined by photometry at a wavelength of 595 nm. The change of cell number, in percent, was calculated by normalization of the measured values to the extinction values of the zero-point plate (=0%) and the extinction of the untreated (0 μm) cells (=100%). The IC50 values (inhibitory concentration at 50% of maximal effect) were determined by means of a 4 parameter fit.

[3] = system: Caco-2, human colorectal carcinoma cells; experiment: Proliferation assay, Caco-2 (crystal violet); type: cell-based; settings: 96 h, Caco-2, 4 days, read-out: Inhibition of Caco-2 cell proliferation
Protocol: as §1

[4] = system: B16F10, mouse melanoma cells; experiment: Proliferation assay, B16F10 (crystal violet); type: cell-based; settings: B16-F10, 96 h, B16F10, 4 days, read-out: Inhibition of B16F10 cell proliferation
Protocol: as §1

[5] = system: A2780, human ovarian carcinoma cells; experiment: Proliferation assay, A2780 (crystal violet); type: cell-based; settings: 96 h, A2780, 4 days, read-out: Inhibition of A2780 cell proliferation
Protocol: as §1, with “The IC50 values (inhibitory concentration at 50% of maximal effect) were determined by means of a 4 parameter fit.” left out

[6] = system: HeLa-MaTu-ADR, multidrug-resistant human cervical carcinoma cells; experiment: Proliferation assay, HeLa-MaTu-ADR (crystal violet); type: cell-based; settings: 96 h, 4 days, read-out: Inhibition of HeLa-MaTu-ADR cell proliferation
Protocol: as §1

[7] = system: NCI-H460, human non-small cell lung carcinoma cells; experiment: Proliferation assay, NCI-H460 (crystal violet); type: cell-based; settings: 96 h, NCI-H460, 4 days, read-out: Inhibition of NCI-H460 cell proliferation
Protocol: as §1

[8] = system: HeLa, human cervical tumour cells; experiment: Proliferation assay, HeLa (crystal violet); type: cell-based; settings: 96 h, 4 days, read-out: Inhibition of HeLa cell proliferation
Protocol: as §1

T1 sequence (P50750 whole entry): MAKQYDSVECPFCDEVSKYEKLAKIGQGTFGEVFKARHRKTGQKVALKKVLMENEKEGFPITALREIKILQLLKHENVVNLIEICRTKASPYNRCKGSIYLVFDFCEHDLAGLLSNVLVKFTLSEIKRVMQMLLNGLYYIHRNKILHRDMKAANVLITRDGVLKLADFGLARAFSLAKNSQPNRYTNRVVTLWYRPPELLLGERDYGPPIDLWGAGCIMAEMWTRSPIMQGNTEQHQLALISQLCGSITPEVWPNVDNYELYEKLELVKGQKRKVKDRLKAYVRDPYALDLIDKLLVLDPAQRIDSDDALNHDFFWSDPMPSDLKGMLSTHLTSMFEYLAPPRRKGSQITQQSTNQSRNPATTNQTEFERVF
T1 sequence (O60563 whole entry partner): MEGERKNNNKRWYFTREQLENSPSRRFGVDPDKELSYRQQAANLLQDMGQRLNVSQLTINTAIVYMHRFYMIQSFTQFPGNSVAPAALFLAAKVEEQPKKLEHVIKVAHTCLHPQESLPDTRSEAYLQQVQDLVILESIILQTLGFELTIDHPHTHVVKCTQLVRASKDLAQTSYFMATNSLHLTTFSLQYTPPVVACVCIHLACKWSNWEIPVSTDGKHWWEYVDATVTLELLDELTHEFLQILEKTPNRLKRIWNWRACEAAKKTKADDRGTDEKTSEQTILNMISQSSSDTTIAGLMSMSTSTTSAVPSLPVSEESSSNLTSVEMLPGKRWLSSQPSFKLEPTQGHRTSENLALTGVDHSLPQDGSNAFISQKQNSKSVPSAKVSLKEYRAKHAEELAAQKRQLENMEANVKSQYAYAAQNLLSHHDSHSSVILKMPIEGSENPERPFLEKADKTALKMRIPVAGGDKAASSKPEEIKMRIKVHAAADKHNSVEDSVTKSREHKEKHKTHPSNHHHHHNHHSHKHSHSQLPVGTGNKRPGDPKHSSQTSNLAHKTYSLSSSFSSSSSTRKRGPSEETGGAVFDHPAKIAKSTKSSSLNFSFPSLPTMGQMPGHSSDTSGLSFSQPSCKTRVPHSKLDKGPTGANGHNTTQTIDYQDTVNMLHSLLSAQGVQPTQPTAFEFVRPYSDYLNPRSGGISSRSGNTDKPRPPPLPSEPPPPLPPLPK

| IC50 [1] | Selectivity CDK9 over CDK2: IC50 (CDK2)/IC50 (CDK9) [1] | IC50 [2] | IC50 [3] | IC50 [4] | IC50 [5] | IC50 [6] | IC50 [7] | IC50 [8] | Compound |
| --- | --- | --- | --- | --- | --- | --- | --- | --- | --- |
| 5.8 nM | 3.6 | 15 nM | 19 nM | 19 nM | 10 nM | 11 nM | 21 nM | 6 nM | CS(=N)(=O)Cc1cc(Nc2cc(-c3ccc(F)c4ccoc34)c(F)cn2)nc(C(F)(F)F)c1 (racemic) [Example 3, (rac)-5-Fluoro-4-(4-fluoro-1-benzofuran-7-yl)-N-{4-[(S-methylsulfonimidoyl)methyl]-6-(trifluoromethyl)pyridin-2-yl}pyridin-2-amine] |
| 3.4 nM | 38 | 55 nM | 46 nM | 53 nM | 29 nM | 42 nM | 120 nM | 31 nM | CS(=N)(=O)Cc1ccnc(Nc2cc(-c3ccc(F)c4ccoc34)c(F)cn2)c1 (racemic) [Example 5, (rac)-5-Fluoro-4-(4-fluoro-1-benzofuran-7-yl)-N-{4-[(S-methylsulfonimidoyl)methyl]pyridin-2-yl}pyridin-2-amine] |
